Patent publication US5550110A, “Endothelin Antagonists II” (Warner-Lambert Company, priority 1994, dated 1996)
pIC50: −log10 of the molar value. Square brackets hold non-standard residues; d marks the D form. Peptide text beside a SMILES is read from it. * marks the point of attachment. dGly(5-dibenzosuberyl) = N[C@@H](C(=O)O)C1c2ccccc2CCc2ccccc21; For = O=C*

Tests used:
[1] = tested on: endothelin receptor (ETA), rabbit renal artery vascular smooth muscle cells; test: Endothelin Receptor Binding Assay-A (ERBA-A), intact cell binding of [125I]-ET-1; conditions: [125I]-ET-1 25 pM
Method: The compounds of Formula I are valuable antagonists of endothelin. […] Thus, the compounds of Formula I were tested for their ability to inhibit [^125 I]-ET-1([^125 I]-Endothelin-1) binding in a receptor assay according to the following procedures: Endothelin Receptor Binding Assay-A (ERBA-A) Intact Cell Binding of [^125 I]-ET-1 The cells used were rabbit renal artery vascular smooth muscle cells grown in a 48-well dish (1 cm^2) (confluent cells). The assay buffer was a medium 199 containing Hanks salts and 25 mM Hepes buffer (Gibco 380-2350AJ), supplemented with penicillin/streptomycin/fungizone (0.5%) and bovine serum albumin (1 mg/mL). Amersham radioiodinated endothelin-1 [^125 I]-ET-1 was used at final concentration of 20,000 cpm/0.25 mL (25 pM). […] Second, remove the assay buffers, place the dish on ice, and add 150 μL of cold assay buffer described above to each well. Third, add […] each of cold [^125 I]-ET-1 and competing ligand to the solution (at the same time if possible). Next, place dish in a 37° C. water bath for about 2 hours and gently agitate the dish every 15 minutes. Discard the radioactive incubation mixture in the sink and wash wells 3 times with 1 mL of cold phosphate buffered saline. Last, add […] of 0.25 molar sodium hydroxide, agitate for 1 hour on a rotator, and then transfer the sodium hydroxide extract to gamma counting tubes and count the radioactivity.

[2] = target: T1, endothelin receptor (ETB), rat cerebellar membranes (Rattus norvegicus, UniProt P21451); test: Endothelin Receptor Binding Assay-B (ERBA-B), [125I]-ET-1 binding in rat cerebellar membranes; conditions: [125I]-ET-1 25 pM, read-out: ERRA-B IC50
T1 construct: thaw one aliquot of frozen rat cerebellar membranes (2 mg protein in 0.5 mL); from tissue; host or cells: rat cerebellum (membranes)
T1 sequence (P21451 27-442): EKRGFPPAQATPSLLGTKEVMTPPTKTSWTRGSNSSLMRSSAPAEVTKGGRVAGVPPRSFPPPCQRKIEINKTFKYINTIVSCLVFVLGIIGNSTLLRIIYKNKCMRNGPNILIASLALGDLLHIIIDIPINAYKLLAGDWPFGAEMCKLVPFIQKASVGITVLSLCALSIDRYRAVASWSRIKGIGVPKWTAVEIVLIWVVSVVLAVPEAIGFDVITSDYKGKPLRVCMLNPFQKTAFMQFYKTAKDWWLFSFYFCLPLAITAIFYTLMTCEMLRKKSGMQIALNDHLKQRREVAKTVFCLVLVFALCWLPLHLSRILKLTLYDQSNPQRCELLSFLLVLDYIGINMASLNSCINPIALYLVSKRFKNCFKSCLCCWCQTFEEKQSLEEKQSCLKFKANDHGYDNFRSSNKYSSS
Method: Endothelin Receptor Binding Assay-B (ERBA-B) [^125 I]-ET-1 Binding in Rat Cerebellar Membranes
The tissue is made up of 20 mM tris(hydroxymethyl)aminomethane hydrochloride (Trizma) buffer, 2 mM ethylenediaminetetra acetate, 100 μM phenylmethylsulfonyl fluoride.
First, thaw one aliquot of frozen rat cerebellar membranes (2 mg protein in 0.5 mL). Next, add 0.5 mL membrane aliquot to 4.5 mL cold tissue buffer, polytron at 7,500 revolutions per minute for 10 seconds. Finally, dilute tissue suspension 1/100 (0.1 mL suspension+9.9 mL tissue buffer), polytron again, and place ice.
Medium 199 with Hank's salts plus 25 mM Hepes+1 mg/mL bovine serum albumin.
Amersham [^125 I]-ET-1 (aliquots of 2×10^6 cpm per […] aliquot of [^125 I]-ET-1 with 5.2 mL dilution buffer, place on ice until use (final concentration will be 20,000 cpm per tube, or 25 pM).
Add 50 μL each of cold [^125 ]-ET-1 and competing ligand to tubes on ice. Mix in 150 μL of tissue to each tube, vortex briefly, then tap to force all liquids to bottom (total assay volume=250 μL). Then place the tubes in a 37° C. water bath for 2 hours.
Add 2.5 mL cold wash buffer (50 mM Trizma buffer) to each tube, filter, and then wash tube with additional 2.5 mL wash buffer and add to filter. Finally, wash filters with an additional 2.5 mL of cold wash buffer.
Count filters for radioactivity in gamma counter.

[3] = tested on: endothelin receptor, cultured rabbit renal artery vascular smooth muscle cells; test: Inhibition of ET-1 stimulated arachidonic acid release (AAR-A); assay type: cell-based; conditions: ET-1 0.3 nM
Method: (§1) In Vitro Inhibition of ET-1 Stimulated Arachidonic Acid Release in Cultured Rabbit Vascular Smooth Muscle Cells (AAR-A) or CHO Cells Expressing Rat Recombinant ETB Receptor (AAR-B) by Compounds of Formula I
(§2) Antagonist activity is measured by the ability of added compounds to reduce endothelin-stimulated arachidonic acid release in cultured vascular smooth muscle cells as arachidonic acid release (AAR). [^3 H] Arachidonic Acid Loading Media (LM) is DME/F12+0.5% fetal calf serum (FCS)×0.25 mCi/mL [^3 H] arachidonic acid (Amersham). Confluent monolayers of cultured rabbit renal artery vascular smooth muscle cells (AAR-A) or CHO cells expressing rat recombinant ETB receptor (AAR-B) were incubated in 0.5 mL of the LM over 18 hours, at 37° C., in 5% CO2. The LM was aspirated and the cells were washed once with the assay buffer (Hank's balanced salt solution [BSS]+10 mM HEPES+fatty acid-free BSA (1 mg/mL)), and incubated for 5 minutes with 1 mL of the prewarmed assay buffer. This solution was aspirated, followed by an additional 1 mL of prewarmed assay buffer, and further incubated for another 5 minutes. A final 5-minute incubation was carried out in a similar manner. The same procedure was repeated with the inclusion of 10 μL of the test compound (1 nM to 1 μM) and 10 μL ET-1 (0.3 nM) and the incubation was extended for 30 minutes. This solution was then collected, […] of scintillation cocktail was added, and the amount of [^3 H] arachidonic acid was determined in a liquid scintillation counter.

[4] = target: T2, rat recombinant ETB receptor (CHO cells) (Rattus norvegicus, UniProt P21451); test: Inhibition of ET-1 stimulated arachidonic acid release (AAR-B); assay type: cell-based; conditions: ET-1 0.3 nM
T2 construct: expressed in transfected cells; host or cells: CHO cells
T2 sequence (P21451 27-442): T1 sequence (P21451 27-442)
Method: as §1, §2

Row | pIC50 [1] | pIC50 [2] | pIC50 [3] | pIC50 [4] | Structure (SMILES)
1 | 5.60 | 5.52 | 5.63 | – | CC[C@H](C)[C@H](NC(=O)[C@H](CC(=O)O)NC(=O)[C@H](CC(C)C)NC(=O)[C@@H](N)C1c2ccccc2CCc2ccccc21)C(=O)N[C@H](C(=O)N[C@@H](Cc1c[nH]c2ccccc12)C(=O)O)[C@@H](C)CC [Example 3, L-Bhg-Leu-Asp-Ile-Ile-Trp] (HELM PEPTIDE1{[N[C@H](C(=O)[*:2])C1c2ccccc2CCc2ccccc21].L.D.I.I.W}$$$$V2.0)
2 | 7.74 | 6.74 | 7.30 | 7.21 | CC[C@H](C)[C@H](NC(=O)[C@H](CC(=O)O)NC(=O)[C@H](CC(C)C)NC(=O)[C@H](NC(C)=O)C1c2ccccc2Sc2ccccc21)C(=O)N[C@H](C(=O)N[C@@H](Cc1c[nH]c2ccccc12)C(=O)O)[C@@H](C)CC [Example 5, Ac-D-Txg-Leu-Asp-Ile-Ile-Trp] (HELM PEPTIDE1{[ac].[O=C([C@H](N[*:1])C1c2ccccc2Sc2ccccc21)[*:2]].L.D.I.I.W}$$$$V2.0)
3 | 7.30 | 6.03 | – | – | CC[C@H](C)[C@H](NC(=O)[C@H](CC(=O)O)NC(=O)[C@H](CC(C)C)NC(=O)[C@@H](NC(C)=O)C1c2ccccc2Oc2ccccc21)C(=O)N[C@H](C(=O)N[C@@H](Cc1c[nH]c2ccccc12)C(=O)O)[C@@H](C)CC [Example 9, Ac-L-Oxn-Leu-Asp-Ile-Ile-Trp] (HELM PEPTIDE1{[ac].[O=C([C@@H](N[*:1])C1c2ccccc2Oc2ccccc21)[*:2]].L.D.I.I.W}$$$$V2.0)
4 | 6.92 | 6.26 | – | – | CC[C@H](C)[C@H](NC(=O)[C@H](CC(=O)O)NC(=O)[C@H](CC(C)C)NC(=O)[C@H](NC(C)=O)C1c2ccccc2Oc2ccccc21)C(=O)N[C@H](C(=O)N[C@@H](Cc1c[nH]c2ccccc12)C(=O)O)[C@@H](C)CC [Example 10, Ac-D-Oxn-Leu-Asp-Ile-Ile-Trp] (HELM PEPTIDE1{[ac].[O=C([C@H](N[*:1])C1c2ccccc2Oc2ccccc21)[*:2]].L.D.I.I.W}$$$$V2.0)
5 | 6.08 | 6.42 | 6.49 | 5.62 | CC[C@H](C)[C@H](NC(=O)[C@H](CC(=O)O)NC(=O)[C@H](CC(C)C)NC(=O)[C@H](N)C1c2ccccc2Sc2ccccc21)C(=O)N[C@H](C(=O)N[C@@H](Cc1c[nH]c2ccccc12)C(=O)O)[C@@H](C)CC [Example 13, D-Txg-Leu-Asp-Ile-Ile-Trp] (HELM PEPTIDE1{[N[C@@H](C(=O)[*:2])C1c2ccccc2Sc2ccccc21].L.D.I.I.W}$$$$V2.0)
6 | – | 7.40 | – | – | CC[C@H](C)[C@H](NC(=O)[C@H](CC(=O)O)NC(=O)[C@H](CCCN=C(N)N)NC(=O)[C@H](NC(C)=O)C1c2ccccc2CCc2ccccc21)C(=O)N[C@H](C(=O)N[C@@H](Cc1c[nH]c2ccccc12)C(=O)O)[C@@H](C)CC [Example 14, Ac-D-Bhg-Arg-ASp-Ile-Ile-Trp] (HELM PEPTIDE1{[ac].[O=C([C@H](N[*:1])C1c2ccccc2CCc2ccccc21)[*:2]].R.D.I.I.W}$$$$V2.0)
7 | 7.17 | 7.52 | – | – | CC[C@H](C)[C@H](NC(=O)[C@H](Cc1ccccc1)NC(=O)[C@H](CC(=O)O)NC(=O)[C@H](CC(C)C)NC(=O)[C@H](NC(C)=O)C1c2ccccc2CCc2ccccc21)C(=O)N[C@@H](Cc1c[nH]c2ccccc12)C(=O)O [Example 17, Ac-D-Bhg-Leu-Asp-Phe-Ile-Trp] (HELM PEPTIDE1{[ac].[O=C([C@H](N[*:1])C1c2ccccc2CCc2ccccc21)[*:2]].L.D.F.I.W}$$$$V2.0)

Row | Structure (SMILES) | pIC50 [1] | pIC50 [2] | pIC50 [3] | pIC50 [4]
8 | CC[C@H](C)[C@H](NC(=O)[C@H](CC(=O)O)NC(=O)[C@H](CC(C)C)NC(=O)[C@@H](NC(C)=O)C1c2ccccc2CCc2ccccc21)C(=O)N[C@H](C(=O)N[C@@H](Cc1c[nH]c2ccccc12)C(=O)O)[C@@H](C)CC [Example 4, Ac-L-Bhg-Leu-Asp-Ile-Ile-Trp] (HELM PEPTIDE1{[ac].[O=C([C@@H](N[*:1])C1c2ccccc2CCc2ccccc21)[*:2]].L.D.I.I.W}$$$$V2.0) | – | 6.15 | – | –
9 | CC[C@H](C)[C@H](NC(=O)[C@H](CC(=O)O)NC(=O)[C@H](CC(C)C)NC(=O)[C@@H](N)C1c2ccccc2Sc2ccccc21)C(=O)N[C@H](C(=O)N[C@@H](Cc1c[nH]c2ccccc12)C(=O)O)[C@@H](C)CC [Example 11, L-Txg-Leu-Asp-Ile-Ile-Trp] (HELM PEPTIDE1{[N[C@H](C(=O)[*:2])C1c2ccccc2Sc2ccccc21].L.D.I.I.W}$$$$V2.0) | 5.35 | 5.68 | – | –
10 | CC[C@H](C)[C@H](NC(=O)[C@H](CC(=O)O)NC(=O)[C@H](CC(C)C)NC(=O)[C@@H](NC(C)=O)C1c2ccccc2Sc2ccccc21)C(=O)N[C@H](C(=O)N[C@@H](Cc1c[nH]c2ccccc12)C(=O)O)[C@@H](C)CC [Example 12, Ac-L-Txg-Leu-Asp-Ile-Ile-Trp] (HELM PEPTIDE1{[ac].[O=C([C@@H](N[*:1])C1c2ccccc2Sc2ccccc21)[*:2]].L.D.I.I.W}$$$$V2.0) | 5.82 | 5.68 | – | –
11 | CC[C@H](C)[C@H](NC(=O)[C@@H](NC(=O)[C@H](CC(=O)O)N(C)C(=O)[C@H](CC(C)C)NC(=O)[C@H](NC(C)=O)C1c2ccccc2CCc2ccccc21)[C@@H](C)CC)C(=O)N[C@@H](Cc1c[nH]c2ccccc12)C(=O)O [Example 15, Ac-D-Bhg-Leu-N-MeAsp-Ile-Ile-Trp] (HELM PEPTIDE1{[ac].[O=C([C@H](N[*:1])C1c2ccccc2CCc2ccccc21)[*:2]].L.[meD].I.I.W}$$$$V2.0) | – | 5.72 | – | –
12 | CC[C@H](C)[C@H](NC(=O)[C@H](CC(=O)O)NC(=O)[C@H](CCCNC(=N)N)NC(=O)[C@H](NC(C)=O)C1c2ccccc2CCc2ccccc21)C(=O)N[C@H](C(=O)N[C@@H](Cc1cn(C=O)c2ccccc12)C(=O)O)[C@@H](C)CC [Example 18, Ac-D-Bhg-Arg-Asp-Ile-Ile-Trp(For)] (Ac-[dGly(5-dibenzosuberyl)]RDIIW(For)-OH) | 7.10 | 5.31 | – | –
